Laboratory results from patent US7875650B2, “Compounds and methods to increase anti-P-glycoprotein activity of baicalein by alkylation on the A ring” (Yale University, priority 2004, dated 2011).
Where two headings read alike, the source gives them in different places. One block for each molecule: values may come before it.

What was measured:
P-gp 170 [1] = target: T1, P-gp 170 (Homo sapiens, UniProt P08183); assay: in vitro; conditions: for Amax (maximum accumulation of intracellular vinblastine), fold higher than control: human, 60 min
Text: (§1) The KB/MDR cells, which overexpress human P-gp 170 protein, were used to evaluate the anti-P-gp 170 activity of drugs. […] The concentration of compound required to achieve 50% maximum accumulation of vinblastine is presented as the EC50 value. The maximum accumulation of intracellular vinblastine caused by the compounds in one hour is expressed as Amax (picomoles/10^6 cells). The cell growth inhibitory activity of compounds is presented as the concentration required to inhibit 50% growth of KB or KB/MDR cell lines (IC50) following three days of compound treatment.
(§2) Vinblastine uptake by the KB/MDR cells. KB/MDR cells,^37 which overexpress human P-gp 170 protein, were seeded into 24-well tissue culture plates in RPMI 1640 medium plus 10% fetal bovine serum for 24 hours without the selecting agent doxorubicin (37 nM). The cells were then treated with [^3H]vinblastine plus synthetic flavones in HBSS for 60 minutes. The cells were washed twice with ice-cold PBS, harvested with 1 N NaOH, neutralized with 1 N HCl. The cell aliquots were transferred to scintillation vials and counted with a […] (Beckman, model LS 5000) after adding 10 mL scintillation fluids (SafeScint, American Bioanalytical Co., Natick, Mass.). Data presented are the mean of three independent experiments.

[2] = target: P-gp 170 (human P-glycoprotein) (Homo sapiens, UniProt P08183); assay: in vitro; conditions: human
Text: as §1, §2

P-gp = P-gp (Homo sapiens, UniProt P08183); conditions: their (Boumendjel et al.) experiments; cited from earlier work
P-gp 170 [3] = target: T1, P-gp 170; assay: Inhibitory activity of Scute and its components against P-gp 170 efflux action (previous study)
KB/MDR cells = assay: Growth inhibitory assay, KB/MDR cells; type: cell-based, human; conditions: 3 days
Protocol: (§3) The cells were then fixed and stained with methylene blue in 50% MeOH, washed thoroughly with tap water, and dissolved with 0.5 mL 0.5% sarcosyl.^38 The amount of cellular protein, which is proportional to the cell number, is estimated by the absorption (OD595nm). The growth inhibitory assay, which is presented as an IC50 value, represents the concentration of compound required to inhibit 50% of cell growth. The cell doubling time of KB and KB/MDR cells is about 20 to 24 hours. The data presented are the mean of three independent experiments.

KB cells = assay: Growth inhibitory assay, KB cells; type: cell-based, human; conditions: 3 days
Protocol: as §3

P-gp 170 [4] = target: T1, P-gp 170

T1 sequence (P08183 whole entry): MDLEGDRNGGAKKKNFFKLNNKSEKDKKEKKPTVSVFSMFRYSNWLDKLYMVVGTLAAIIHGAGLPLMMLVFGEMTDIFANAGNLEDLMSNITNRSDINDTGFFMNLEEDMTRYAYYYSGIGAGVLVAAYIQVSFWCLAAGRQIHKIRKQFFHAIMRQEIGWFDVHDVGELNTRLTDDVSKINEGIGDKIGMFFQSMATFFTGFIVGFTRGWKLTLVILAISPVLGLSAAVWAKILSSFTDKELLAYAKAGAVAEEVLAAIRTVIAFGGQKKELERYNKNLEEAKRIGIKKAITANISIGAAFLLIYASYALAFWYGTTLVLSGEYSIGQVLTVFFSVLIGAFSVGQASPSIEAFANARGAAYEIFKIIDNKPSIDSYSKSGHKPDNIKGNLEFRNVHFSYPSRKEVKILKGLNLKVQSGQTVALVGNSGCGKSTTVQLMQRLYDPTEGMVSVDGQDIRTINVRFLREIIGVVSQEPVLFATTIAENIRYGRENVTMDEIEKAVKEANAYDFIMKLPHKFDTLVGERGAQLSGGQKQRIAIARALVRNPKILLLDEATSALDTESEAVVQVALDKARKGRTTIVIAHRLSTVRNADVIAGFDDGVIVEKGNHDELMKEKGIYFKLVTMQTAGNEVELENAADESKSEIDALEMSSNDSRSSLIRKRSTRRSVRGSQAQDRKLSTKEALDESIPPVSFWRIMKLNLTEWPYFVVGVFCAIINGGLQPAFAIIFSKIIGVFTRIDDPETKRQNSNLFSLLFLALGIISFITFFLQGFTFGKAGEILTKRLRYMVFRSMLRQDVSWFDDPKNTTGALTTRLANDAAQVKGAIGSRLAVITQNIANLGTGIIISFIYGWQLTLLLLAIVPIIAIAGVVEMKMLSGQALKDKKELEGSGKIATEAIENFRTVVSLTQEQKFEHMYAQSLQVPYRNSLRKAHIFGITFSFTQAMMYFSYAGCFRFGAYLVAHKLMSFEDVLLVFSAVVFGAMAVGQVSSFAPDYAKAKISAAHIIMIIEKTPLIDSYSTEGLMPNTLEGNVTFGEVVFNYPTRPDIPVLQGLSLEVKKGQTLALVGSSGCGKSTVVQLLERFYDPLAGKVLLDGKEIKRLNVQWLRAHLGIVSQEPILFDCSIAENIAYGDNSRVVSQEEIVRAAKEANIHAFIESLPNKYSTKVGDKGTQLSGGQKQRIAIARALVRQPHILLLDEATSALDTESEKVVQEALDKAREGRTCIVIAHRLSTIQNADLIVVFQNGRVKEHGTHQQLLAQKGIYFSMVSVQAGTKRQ
P-gp 170 (human P-glycoprotein), sequence (P08183 whole entry): as above
P-gp, sequence (P08183 whole entry): as above

Structure (SMILES): CC(=O)Oc1c(OCc2ccccc2)cc2oc(-c3ccccc3)cc(=O)c2c1OC(C)=O [Compound 14, 5,6Diacetoxy-7-(benzoxy)flavone]
anti-P-gp 170 efflux activity (EC50, Amax) in words (P-gp 170 [1]): low EC50 but higher Amax in comparison with baicalein
melting point: 174 to 175 °C

Structure (SMILES): CC(=O)Oc1c(O)cc2oc(-c3ccccc3)cc(=O)c2c1O [Compound 2, 6-Acetoxy-5,7-dihydroxyflavone]
EC50 relative to the parental compound (baicalein) (P-gp 170 [1]): one-fourth
melting point: 205 to 207 °C

Structure (SMILES): CCOc1cc2oc(-c3ccccc3)cc(=O)c2c(O)c1OCC [Compound 33, 6,7-Diethoxy-5-hydroxyflavone]
EC50 (P-gp 170 [1]): 1.8 µM

EC50 (P-gp 170 [1]): 1.2 µM
Amax (maximum accumulation of intracellular vinblastine), fold higher than control (P-gp 170 [1]): 9 fold
Structure (SMILES): CCCOc1c(OC)cc2oc(-c3ccccc3)cc(=O)c2c1O [Compound 21, 5-Hydroxy-7-methoxy-6-propoxyflavone]

anti-P-gp 170 efflux activity (EC50, Amax) in words (P-gp 170 [1]): Amax did not change
EC50 at 60 min [2]: 15 µM
Structure (SMILES): O=c1cc(-c2ccccc2)oc2c(Br)c(O)c(O)c(O)c12 [Compound 25, 8-Bromo-5,6,7-trihydroxyflavone]

EC50 (P-gp 170 [1]): 4.6 µM
Structure (SMILES): COc1cc2oc(-c3ccccc3)cc(=O)c2c(OC)c1OC [Compound 6, 5,6,7-Trimethoxyflavone]

Structure (SMILES): O=c1cc(-c2ccccc2)oc2cc(OCc3ccccc3)cc(O)c12 [7-benzoxy-5-hydroxyflavone]
Amax / drug accumulation as compared to cyclosporin A (P-gp): 25%

Structure (SMILES): CC(=O)Oc1cc2oc(-c3ccccc3)cc(=O)c2c(O)c1OCc1ccccc1 [Compound 10, 7-Acetoxy-6-(benzoxy)-5-hydroxyflavone]
anti-P-gp 170 efflux activity (EC50, Amax) in words (P-gp 170 [1]): low EC50 but higher Amax in comparison with baicalein

Amax (maximum accumulation of intracellular vinblastine), fold higher than control (P-gp 170 [1]): 10 fold
EC50 at 60 min [2]: 1.4 µM
Structure (SMILES): CCCOc1cc2oc(-c3ccccc3)cc(=O)c2c(O)c1OCCC [Compound 18, 5-Hydroxy-6,7-dipropoxyflavone]

Structure (SMILES): COc1c(O[C@@H]2O[C@H](C(=O)O)[C@@H](O)[C@H](O)[C@H]2O)cc(O)c2c(=O)cc(-c3ccccc3)oc12 [wogonoside]
anti-P-gp 170 activity in words (P-gp 170 [3]): lack inhibitory activity

EC50 (P-gp 170 [1]): 2 µM
Amax (maximum accumulation of intracellular vinblastine), fold higher than control (P-gp 170 [1]): 9 fold
melting point: 162 to 163 °C
Structure (SMILES): CCCOc1c(O)cc2oc(-c3ccccc3)cc(=O)c2c1O [Compound 17, 5,7-Dihydroxy-6-propoxyflavone]

Structure (SMILES): O=c1cc(-c2ccccc2)oc2cc(OCc3ccccc3)c(OCc3ccccc3)c(O)c12 [Compound 16, 6,7-(Dibenzoxy)-5-hydroxy-flavone]
cytotoxicity in words (KB/MDR cells): decreased and lost
cytotoxicity in words (KB cells): decreased and lost

Structure (SMILES): CC(=O)Oc1cc2oc(-c3ccccc3)cc(=O)c2c(O)c1OC(C)=O [Compound 3, 6,7-Diacetoxy-5-hydroxyflavone]
EC50 relative to the parental compound (baicalein) (P-gp 170 [1]; KB/MDR cells): one-fourth

Structure (SMILES): CCCCOc1cc2oc(-c3ccccc3)cc(=O)c2c(O)c1OCCCC [Compound 45, 6,7-Dibutoxy-5-hydroxyflavone]
melting point: 116 to 117 °C

melting point: 133 to 134 °C
Structure (SMILES): CCOc1c(OC)cc2oc(-c3ccccc3)cc(=O)c2c1O [Compound 38, 6-Ethoxy-5-hydroxy-7-methoxyflavone]

melting point: 126 to 128 °C
Structure (SMILES): CCOc1cc2oc(-c3ccccc3)cc(=O)c2c(OC)c1OCC

Structure (SMILES): CCOc1c(O)cc2oc(-c3ccccc3)cc(=O)c2c1O [Compound 32, 6-Ethoxy-5,7-dihydroxyflavone]
EC50 (P-gp 170 [1]): 2.3 µM

Structure (SMILES): CCCCOc1cc2oc(-c3ccccc3)cc(=O)c2c(OC)c1OCCCC [Compound 46, 6,7-Dibutoxy-5-methoxyflavone]
melting point: 103 to 105 °C

anti-P-gp 170 efflux activity (EC50, Amax) in words (P-gp 170 [1]): decreased
Structure (SMILES): COc1c2c(cc3oc(-c4ccccc4)cc(=O)c13)OC(c1ccccc1)(c1ccccc1)O2 [Compound 13, 6,7-(Diphenylmethylenedioxy)-5-methoxyflavone]
cytotoxicity in words (KB/MDR cells): decreased
cytotoxicity in words (KB cells): decreased

Structure (SMILES): O=c1cc(-c2ccccc2)oc2cc(O)c(OCc3ccccc3)c(O)c12 [Compound 15, 6-(Benzoxy)-5,7-dihydroxyflavone]
anti-P-gp 170 efflux activity (EC50, Amax) in words (P-gp 170 [1]): low EC50 but higher Amax in comparison with baicalein

Structure (SMILES): CCCOc1cc2oc(-c3ccccc3)cc(=O)c2c(OC)c1OCCC [Compound 23, 5-Methoxy-6,7-dipropoxyflavone]
EC50 (P-gp 170 [1]): 0.9 µM

Structure (SMILES): CC(=O)Oc1c(OC(C)=O)c(O)c2c(=O)cc(-c3ccccc3)oc2c1Br [Compound 24, 6,7-Diacetoxy-8-bromo-5-hydroxyflavone]
anti-P-gp 170 efflux activity (EC50, Amax) in words (P-gp 170 [1]): less favorable activity against P-gp 170 activity than compound 3
melting point: 244 to 246 °C

EC50 (P-gp 170 [1]): 5.5 µM
Structure (SMILES): COc1cc2oc(-c3ccccc3)cc(=O)c2c(O)c1OC [Compound 8, 5-Hydroxy-6,7-dimethoxyflavone]

anti-P-gp 170 activity in words (P-gp 170 [4]): lack inhibitory activity
Structure (SMILES): COc1c(O)cc(O)c2c(=O)cc(-c3ccccc3)oc12 [wogonin, 5,7-dihydroxy-8-methoxyflavone]

Structure (SMILES): O=c1cc(-c2ccccc2)oc2cc(O)c(O)c(O)c12 [Compound 1, baicalein]
anti-P-gp 170 activity in words (P-gp 170 [4]): active component

Structure (SMILES): CC(=O)Oc1cc2oc(-c3ccccc3)cc(=O)c2c(OCc2ccccc2)c1OC(C)=O [Compound 9, 6,7-Diacetoxy-5-(benzoxy)flavone]
anti-P-gp 170 efflux activity (EC50, Amax) in words (P-gp 170 [1]): low EC50 but higher Amax in comparison with baicalein
melting point: 175 to 177 °C

Structure (SMILES): COc1cc2oc(-c3ccccc3)cc(=O)c2c(OC)c1OC(C)=O [Compound 5, 6-Acetoxy-5,7-dimethoxyflavone]
melting point: 208 to 210 °C
